We go through 20 molecules from patent US20240228469A1, “PCSK9 INHIBITORS AND METHODS OF USE THEREOF” (AstraZeneca AB, priority 2022, published 2024).

For test [1], the target named is T1, potassium ion channel hERG (Homo sapiens, UniProt Q12809).
T1 construct: expressed in transfected cells; host or cells: Chinese hamster ovary K1 (CHO)
Kind of test: Assay 5 hERG assay (patch clamp, CHO cells over-expressing hERG). Conditions: SyncroPatch 384PE, room temperature, geometric mean, read-out: Assay 5 (hERG Hu CHO if EPh CR-Syncro) GMean IC50. Type of test: cell-based. Here is the method:
This assay (human Ether-d-go-go-Related Gene) measures activity of the compounds at the potassium ion channel hERG (human Ether-d-go-go-Related Gene).
Experiments were performed on the SyncroPatch 384PE high throughput patch clamp platform at room temperature and medium resistance chips with 4 patch holes per site. Chinese hamster ovary K1 (CHO) cell lines over-expressing the ion channel of choice (hERG) were used in assay-ready format and kept in liquid nitrogen or were used from live culture. Cells were either thawed and diluted in HBSS or were detached from flasks and resuspended in HBSS. HBSS comprised 140 mM NaCl, 4 mM KCl, 10 mM HEPES and 5 mM Glucose (pH7.4). The internal patch clamp solution was KF 120 mM, KCl 20 mM, HEPES 10 mM, EGTA 10 mM, and 25 PM Escin (pH 7.2). After the sealing process was complete, the external solution was exchanged for external patch clamp solution comprising NaCl 80 mM, KCl 4 mM, HEPES 10 mM, CaCl2 2 mM, MgCl2 1 mM, glucose 5 mM, and NMDG 60 mM (pH 7.4). All solutions were stored at room temperature, except Escin, which was stored at 4° C. All test compounds were dispensed in greiner-bio 384 well plates and tested in a 6 point cumulative assay (final DMSO concentration 0.33%). Only wells that passed previously agreed acceptance criteria for this platform were used in this analysis (30 MegaOhm seal resistance, Z prime >0.4 and current size >0.2 nA). […]
For orientation: Block of hERG is tested as a sign of cardiac risk.

Test [2] deals with GSK3β (Glycogen synthase kinase-3 beta) (Homo sapiens, UniProt P49841). Briefly: Assay 6 GSK3β assay (ThermoFisher Z-Lyte FRET). Conditions: ATP Conc: 10 μM, geometric mean; read-out: Assay 6 (GSK3β FRET-Z-Lyte Cr) GMean IC50. In kind it is biochemical. On the procedure: This assay measures the activity of the compounds at GSK33 (Glycogen synthase kinase-3 beta).
The test compounds were screened in 1% DMSO (final) in the well. For 10 point titrations, 3-fold serial dilutions are conducted from the starting concentration of 10 PM.
Bar-coded Corning, low volume NBS, black 384-well plate • 1. 2.5 μL—4× Test Compound or 100 nL 100× plus 2.4 μL kinase buffer • 2. 5 μL—2× Peptide/Kinase Mixture • 3. 2.5 μL—4×ATP Solution • 4. 30-second plate shake • 5. 60-minute Kinase Reaction incubation at room temperature • 6. 5 μL—Development Reagent Solution • 7. 30-second plate shake • 8. 60-minute Development Reaction incubation at room temperature • 9. Read on fluorescence plate reader and analyse the data
In step 2, the 2×GSK3β (GSK3 beta)/Ser/Thr (Glycogen synthase kinase-3 beta/Serine/Threonine) 09 mixture is prepared in 50 mM HEPES (4-(2-hydroxyethyl)-1-piperazineethanesulfonic acid) pH 7.5, 0.01% BRIJ-35, 10 mM MgCl2, 1 mM EGTA (egtazic acid). The final 10 μL Kinase Reaction consists of 0.22-0.92 ng GSK3β (GSK3 beta) and 2 PM Ser/Thr 09 in 50 mM HEPES pH 7.5, 0.01% BRIJ-35, 10 mM MgCl2, 1 mM EGTA.
In step 3 the ATP Solution is diluted to a 4× working concentration in Kinase Buffer (50 mM HEPES pH 7.5, 0.01% BRIJ-35, 10 mM MgCl2, 1 mM EGTA).
In Step 6 the Development Reagent is diluted 1:512 in Development Buffer (10× Novel PKC Lipid Mix: 2 mg/mL Phosphatidyl Serine, 0.2 mg/mL DAG in 20 mM HEPES, pH 7.4, 0.3% CHAPS).
SelectScreen® Kinase Profiling Service uses XLfit from IDBS. The dose response curve is curve fit to model number 205 (sigmoidal dose-response model).

The next test concerns the target PCSK9 (Homo sapiens, UniProt Q8NBP7, G670E/V474I). Kind of test: biochemical.

Chain of GSK3β (Glycogen synthase kinase-3 beta) (P49841 whole entry): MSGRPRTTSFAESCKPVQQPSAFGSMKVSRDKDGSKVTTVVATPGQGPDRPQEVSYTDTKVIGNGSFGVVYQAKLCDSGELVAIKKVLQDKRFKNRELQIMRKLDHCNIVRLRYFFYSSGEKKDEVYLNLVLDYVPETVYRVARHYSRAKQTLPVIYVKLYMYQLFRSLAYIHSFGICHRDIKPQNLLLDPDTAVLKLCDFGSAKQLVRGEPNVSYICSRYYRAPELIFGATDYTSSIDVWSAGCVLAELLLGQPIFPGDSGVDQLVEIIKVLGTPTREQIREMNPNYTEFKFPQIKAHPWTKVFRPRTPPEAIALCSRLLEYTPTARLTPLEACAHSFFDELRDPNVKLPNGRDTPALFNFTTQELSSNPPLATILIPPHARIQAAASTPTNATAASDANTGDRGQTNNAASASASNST
Chain of PCSK9 (Q8NBP7 with tags, fused parts or gaps V474I/G670E): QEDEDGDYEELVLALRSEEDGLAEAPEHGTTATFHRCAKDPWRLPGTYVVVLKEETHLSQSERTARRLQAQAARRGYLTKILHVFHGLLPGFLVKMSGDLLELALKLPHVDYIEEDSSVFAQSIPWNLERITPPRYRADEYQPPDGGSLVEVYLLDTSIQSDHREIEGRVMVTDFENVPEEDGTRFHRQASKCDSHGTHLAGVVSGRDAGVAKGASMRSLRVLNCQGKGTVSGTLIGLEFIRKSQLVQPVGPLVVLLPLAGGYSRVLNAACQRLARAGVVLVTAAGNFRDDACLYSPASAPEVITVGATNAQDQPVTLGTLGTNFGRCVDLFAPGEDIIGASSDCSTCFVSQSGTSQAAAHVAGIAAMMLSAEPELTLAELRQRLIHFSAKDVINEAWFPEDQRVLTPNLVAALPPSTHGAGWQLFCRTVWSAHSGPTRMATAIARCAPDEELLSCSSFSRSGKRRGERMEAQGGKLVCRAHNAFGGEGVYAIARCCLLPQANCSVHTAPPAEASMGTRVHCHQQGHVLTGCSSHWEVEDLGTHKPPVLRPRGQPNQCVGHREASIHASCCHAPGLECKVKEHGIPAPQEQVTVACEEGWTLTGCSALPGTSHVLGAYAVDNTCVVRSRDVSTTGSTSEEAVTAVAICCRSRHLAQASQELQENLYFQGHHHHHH
T1 sequence (Q12809 whole entry): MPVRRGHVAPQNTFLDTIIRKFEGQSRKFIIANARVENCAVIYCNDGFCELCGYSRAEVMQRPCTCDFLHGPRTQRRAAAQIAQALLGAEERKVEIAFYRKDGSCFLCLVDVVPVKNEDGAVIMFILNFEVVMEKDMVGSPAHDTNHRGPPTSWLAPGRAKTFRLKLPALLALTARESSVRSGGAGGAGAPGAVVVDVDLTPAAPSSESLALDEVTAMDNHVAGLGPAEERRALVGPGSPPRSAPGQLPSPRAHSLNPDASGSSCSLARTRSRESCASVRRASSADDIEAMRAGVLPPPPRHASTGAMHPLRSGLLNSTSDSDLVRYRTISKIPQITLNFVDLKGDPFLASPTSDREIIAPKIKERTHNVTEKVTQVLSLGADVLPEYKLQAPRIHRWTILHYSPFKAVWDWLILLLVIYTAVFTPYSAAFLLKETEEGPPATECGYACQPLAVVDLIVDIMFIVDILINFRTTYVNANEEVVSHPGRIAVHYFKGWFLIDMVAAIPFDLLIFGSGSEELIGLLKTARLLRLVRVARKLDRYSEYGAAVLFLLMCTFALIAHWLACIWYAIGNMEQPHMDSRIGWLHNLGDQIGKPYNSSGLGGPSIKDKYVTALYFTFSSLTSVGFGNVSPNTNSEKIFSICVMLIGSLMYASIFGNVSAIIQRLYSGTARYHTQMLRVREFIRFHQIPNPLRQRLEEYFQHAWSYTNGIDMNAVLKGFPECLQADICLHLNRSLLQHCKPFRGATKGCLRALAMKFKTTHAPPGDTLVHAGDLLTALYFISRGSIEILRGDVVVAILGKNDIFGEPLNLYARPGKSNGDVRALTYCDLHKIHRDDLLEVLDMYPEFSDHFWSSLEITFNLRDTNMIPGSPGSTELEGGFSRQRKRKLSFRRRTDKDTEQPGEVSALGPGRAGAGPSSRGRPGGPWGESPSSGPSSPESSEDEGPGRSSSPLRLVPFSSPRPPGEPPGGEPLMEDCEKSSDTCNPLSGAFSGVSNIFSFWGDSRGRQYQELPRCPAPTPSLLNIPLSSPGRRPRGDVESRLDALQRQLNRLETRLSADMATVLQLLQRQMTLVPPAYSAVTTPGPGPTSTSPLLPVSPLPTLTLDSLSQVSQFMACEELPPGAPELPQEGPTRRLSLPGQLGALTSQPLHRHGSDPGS

A word on the IC50: it is the concentration at which inhibition is half-maximal. `CCSc1cnc(N[C@H]2CC[C@H](Nc3ccc(-n4ccccc4=O)cn3)C2)nn1` [Example 258, 6′-(((1S,3S)-3-((6-(Ethylthio)-1,2,4-triazin-3-yl)amino)cyclopentyl)amino)-2H-[1,3′-bipyridin]-2-one]: the IC50 in test [1] amounted to 26.1 µM; in test [2], 0.237 µM; at PCSK9, 0.015 µM.

Regarding `Cc1cnc(N[C@H]2CC[C@H](Nc3ccc(-n4nc(C)cc4C)cn3)C2)nn1` [Example 249], the IC50 was over 40.1 µM in test [1], over 10 µM in test [2] and 0.016 µM at PCSK9.

With `C#CCN(C)C(=O)c1cnc(N[C@H]2CC[C@H](Nc3ccc(-n4ccccc4=O)cn3)C2)nn1` [Example 152, N-Methyl-3-(((1S,3S)-3-((2-oxo-2H-[1,3′-bipyridin]-6′-yl)amino)cyclopentyl)amino)-N-(prop-2-yn-1-yl)-1,2,4-triazine-6-carboxamide], the figures for the IC50 (in test [1]; in test [2]; on PCSK9) were over 40.1 µM, over 10 µM and 0.244 µM, respectively.

Turning to `Cc1cnc(N[C@H]2CC[C@H](Nc3ccc(-n4c(C)nc(C)c4C#N)cn3)C2)nn1` [Example 250, 2,4-Dimethyl-1-(6-(((1S,3S)-3-((6-methyl-1,2,4-triazin-3-yl)amino)cyclopentyl)amino)pyridin-3-yl)-1H-imidazole-5-carbonitrile], the figures for the IC50 (in test [1]; in test [2]; against PCSK9) were over 40.1 µM, over 10 µM and 0.108 µM, respectively.

For `Cc1cnc(N[C@H]2CC[C@H](Nc3ccc(-n4ccc(C#N)cc4=O)cn3)C2)nn1` [Example 183, 6′-(((1S,3S)-3-((6-Methyl-1,2,4-triazin-3-yl)amino)cyclopentyl)amino)-2-oxo-2H-[1,3′-bipyridine]-4-carbonitrile], the IC50 is over 40.1 µM in test [1], over 10 µM in test [2] and 0.03 µM on PCSK9.

Turning to `O=c1cccnn1-c1cnc(N[C@H]2CC[C@H](Nc3ncc(C4CC4)nn3)C2)nc1` [Example 119, 2-(2-(((1S,3S)-3-((6-Cyclopropyl-1,2,4-triazin-3-yl)amino)cyclopentyl)amino)pyrimidin-5-yl)pyridazin-3(2H)-one], the figures for the IC50 (in test [1]; in test [2]; against PCSK9) were over 40 µM, over 10 µM and 0.073 µM, respectively.

Turning to `Cc1cnc(N[C@H]2CC[C@H](Nc3ccc(-c4ccccc4C#N)cn3)C2)nn1` [Example 247, 2-(6-(((1S,3S)-3-((6-Methyl-1,2,4-triazin-3-yl)amino)cyclopentyl)amino)pyridin-3-yl)benzonitrile], the IC50 in test [1] is 6.6 µM; in test [2], over 10 µM; against PCSK9, 0.075 µM.

Regarding `COc1cccc(F)c1-c1ccc(N[C@H]2CC[C@H](Nc3ncc(C)nn3)C2)nc1` [Example 308, (1S,3S)—N′-(5-(2-Fluoro-6-methoxyphenyl)pyridin-2-yl)-N^3-(6-methyl-1,2,4-triazin-3-yl)cyclopentane-1,3-diamine], the IC50 in test [1] was 12 µM; in test [2], over 10 µM; on PCSK9, 0.051 µM.

Consider `O=c1ccccn1-c1ccc(N[C@H]2CC[C@H](Nc3ncc(-c4ccn[nH]4)nn3)C2)nc1` [Example 257, 6′-(((1S,3S)-3-((6-(1H-Pyrazol-5-yl)-1,2,4-triazin-3-yl)amino)cyclopentyl)amino)-2H-[1,3′-bipyridin]-2-one], for which the IC50 in test [1] was over 40.1 µM; in test [2] it was 2.81 µM; against PCSK9 it was 0.062 µM.

Turning to `Cc1nnc(N[C@H]2CC[C@H](Nc3ccc(-n4ccccc4=O)cn3)C2)[nH]c1=O` [Example 254, 6′-(((1S,3S)-3-((6-Methyl-5-oxo-4,5-dihydro-1,2,4-triazin-3-yl)amino)cyclopentyl)amino)-2H-[1,3′-bipyridin]-2-one], the IC50 in test [1] was over 40.1 µM; in test [2] it was 6.14 µM; against PCSK9, 0.33 µM.

`N#Cc1ccc(F)c(-c2ccc(N[C@H]3CC[C@H](Nc4ncc(C5CC5)nn4)C3)nc2)n1` [Example 61, 6′-(((1S,3S)-3-((6-Cyclopropyl-1,2,4-triazin-3-yl)amino)cyclopentyl)amino)-3-fluoro-[2,3′-bipyridine]-6-carbonitrile]: the IC50 in test [1] is 5.6 µM; in test [2], over 10 µM; at PCSK9, 0.184 µM.

In the case of `COc1c(C#N)ccc(F)c1-c1ccc(N[C@H]2CC[C@H](Nc3ncc(C4CC4)nn3)C2)nc1` [Example 168, 3-(6-(((1S,3S)-3-((6-Cyclopropyl-1,2,4-triazin-3-yl)amino)cyclopentyl)amino)pyridin-3-yl)-4-fluoro-2-methoxybenzonitrile], the IC50 in test [1] is 3.1 µM; in test [2], over 10 µM.

As for `Cc1cnc(NCC(CCO)CNc2ccc(-n3c(=O)ccc4ccccc43)cn2)nn1` (racemic) [Example 318, rac-1-(6-((4-Hydroxy-2-(((6-methyl-1,2,4-triazin-3-yl)amino)methyl)butyl)amino)pyridin-3-yl)quinolin-2(1H)-one], the IC50 in test [1] was over 40 µM; at PCSK9, 0.284 µM.

`Cc1cnc(NCC(CCO)CNc2ccc(-n3c(=O)ccc4cccnc43)cn2)nn1` (racemic) [Example 320, rac-1-(6-((4-Hydroxy-2-(((6-methyl-1,2,4-triazin-3-yl)amino)methyl)butyl)amino)pyridin-3-yl)-1,8-naphthyridin-2(1H)-one]: the IC50 in test [1] was over 40 µM; against PCSK9, 0.559 µM.

Turning to `Cc1ccc(=O)n(-c2ccc(NCC(CCO)CNc3ncc(C)nn3)nc2)c1` (racemic) [Example 316, rac-6′-((4-Hydroxy-2-(((6-methyl-1,2,4-triazin-3-yl)amino)methyl)butyl)amino)-5-methyl-2H-[1,3′-bipyridin]-2-one], the values for the IC50 (in test [1]; against PCSK9) were over 40 µM and 7.43 µM, respectively.

`Cc1cnc(NCC(CCO)CNc2ccc(-n3c(=O)n(C)c4cccnc43)cn2)nn1` (racemic) [Example 319, rac-3-(6-((4-Hydroxy-2-(((6-methyl-1,2,4-triazin-3-yl)amino)methyl)butyl)amino)pyridin-3-yl)-1-methyl-1,3-dihydro-2H-imidazo[4,5-b]pyridin-2-one]: the half-inhibitory concentration (IC50) in test [1] was over 40 µM; against PCSK9, 0.705 µM.

Turning to `Fc1cccc(F)c1-c1ccc(N[C@H]2CC[C@H](Nc3ncc(C4CC4)nn3)C2)nc1` [Example 53], the IC50 in test [1] is 3.4 µM; in test [2], over 10 µM.

Regarding `COc1c(C(=O)O)ccc(F)c1-c1ccc(N[C@H]2CC[C@H](Nc3ncc(C4CC4)nn3)C2)nc1` [Example 167, 3-(6-(((1S,3S)-3-((6-Cyclopropyl-1,2,4-triazin-3-yl)amino)cyclopentyl)amino)pyridin-3-yl)-4-fluoro-2-methoxybenzoic acid], the IC50 was over 40.1 µM in test [1] and over 10 µM in test [2].

As for `COc1cccc(F)c1-c1ccc(N[C@H]2CC[C@H](Nc3ncc(C4CC4)nn3)C2)nc1` [Example 54], the IC50 was 4.3 µM in test [1] and over 10 µM in test [2].

Regarding `Cc1cnc(NCC(CCO)CNc2ccc(-n3c(=O)n(C)c4ccccc43)cn2)nn1` (racemic) [Example 321, rac-1-(6-((4-Hydroxy-2-(((6-methyl-1,2,4-triazin-3-yl)amino)methyl)butyl)amino)pyridin-3-yl)-3-methyl-1,3-dihydro-2H-benzo[d]imidazol-2-one], the IC50 in test [1] was over 40 µM; against PCSK9, 0.297 µM.
